For one test, the target named is T1, EGF binding site (Rattus norvegicus, UniProt G3V6K6).
T1 construct: Receptor source was rat liver membranes; tissue NovaScreen BioSciences; host or cells: rat liver membranes
The test is described as follows: Inhibition of [125I]EGF binding (EGF inhibitor assay, NovaScreen). The settings on record: determined at 25 μM; rat liver membranes; result in words. How it is done: Identified compounds, representing various pharmacophore models, were tested for ability to inhibit EGFR at 25 μM.
AD4-compounds were identified using pharmacophore models (see Example 3, Example 4) and then were docked with the binding site of EGFR (SEQ ID NO: 1) that is recognized by defined CDRs of cetuximab. The inhibition of epidermal growth factor binding by AD4-compounds was then determined (NovaScreen BioSciences, Hanover, Md.). Inhibition of EGF binding was determined at 25 μM concentration.
Receptor source was rat liver membranes. The radioligand was [^125I]EGF ([…]) at a final ligand concentration of 0.36 nM. A non-specific determinant was used as EGF—[100 nM]. The reference compound and positive control was EGF. Reactions were carried out in 10 mM HEPES (pH 7.4) containing 0.1% BSA at 25° C. for 60 minutes. The reaction was terminated by rapid vacuum filtration onto glass fiber filters. Radioactivity trapped onto the filters was determined and compared to control values to ascertain any interactions of test compounds with the EGF binding site. The EGF inhibitor assays were modified from, for example, Mukku (1984) J. Biol. Chem. 259, 6543-6546; Duh et al. (1990) World J. Surgery 14, 410-418; Lokeshwar et al. (1989) J. Biol. Chem. 264(32), 19318-19326.

The subject of test [1] is EGF receptor-mediated cell proliferation. The test is described as follows: Combination studies (median effect analysis: IC50, CI, DRI) in cell proliferation assay (MTT assay). As to conditions: for CI @ ED90: Combination Index at 90% inhibition; for DRI @ ED97: Dose Reduction Index. (Tetrazolium dyes change colour on reduction, which living cells bring about.)
Excerpt: Studies were initiated to evaluate the ability of various compounds disclosed herein to synergize with several compounds known to inhibit the function of the EGF receptor in a cell proliferation assay (MTT assay).
Test [2] concerns the target T2, EGFR (Homo sapiens, UniProt P00533).
T2 construct: A431 cells (ATCC # CRL-1555) were grown in Dulbecco's Modified Eagle Medium; host or cells: A431
The test is described as follows: Titration of known EGFR inhibitors in absence or presence of a fixed concentration of AD4 compound (% inhibition of EGFR). The settings on record: Tykerb alone or in combination with the compound; result in words. Format: cell-based.

Test [3] concerns the target T2, EGFR. The test is described as follows: EGFR in-cell Western (ICW) screening protocol (EGFR inhibition assay). Format: cell-based. The arrangement: ICW 1 / ICW 2 / ICW Avg: unit not given here. The settings on record: ICW assay; for ICW Avg: average of runs 1 and 2; for ICW 1: run 1; for ICW 2: run 2. An outline of the steps: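 In-cell Western read-out: fixed A431 cells were co-stained for total EGFR and phospho-EGFR (Tyr1173; some runs Tyr1045). Before fixation, cells were serum-starved for 2 h, exposed to compound for 4 h, then given EGF for 10 min, usually at 10 ng/ml final (6.6 or 12.5 ng/ml in some runs).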

Test [4] relates to epithelial carcinoma A431 cell line. The test is described as follows: MTT Cell Proliferation Assay, A431 cells. The class given is cell-based. The settings on record: for IC50: first value of cell, read-out: MTT Assay IC50(A431/MDBK): A431; for MTT Assay IC50(A431/MDBK): ratio in parentheses: ratio MDBK IC50 / A431 IC50 (selectivity). An outline of the steps:
(§1)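 Each concentration ran in quadruplicate across duplicate plates, with compounds serially diluted in DMSO and delivered at 0.5% DMSO in 0.5% FBS medium for 3 days.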

Another test has as its system MDBK line. Put plainly: MTT Cell Proliferation Assay, MDBK cells. Format: cell-based, bovine. The settings on record: MDBK cells, second value of cell, read-out: MTT Assay IC50(A431/MDBK): MDBK. An outline of the steps:
as §1

Setting [5] is: effect of the test compound on Iressa.
The mark [6] stands for this setting: effect of the test compound on Tykerb.
Where [7] appears, read: Homo sapiens, A-431, A431 cells.

Values joined by “and” are separate entries in the source; they are usually repeats but may differ in a detail not shown here. Identical values can stand only once. “Also recorded” adds a separate entry of the source. Like-named read-outs stand apart in the source and are kept apart here.

This note sets out measurements from patent publication US20140179681A1, “METHODS AND COMPOSITIONS OF TARGETED DRUG DEVELOPMENT” (priority 2010, published 2014).

T2 sequence (P00533 25-1210): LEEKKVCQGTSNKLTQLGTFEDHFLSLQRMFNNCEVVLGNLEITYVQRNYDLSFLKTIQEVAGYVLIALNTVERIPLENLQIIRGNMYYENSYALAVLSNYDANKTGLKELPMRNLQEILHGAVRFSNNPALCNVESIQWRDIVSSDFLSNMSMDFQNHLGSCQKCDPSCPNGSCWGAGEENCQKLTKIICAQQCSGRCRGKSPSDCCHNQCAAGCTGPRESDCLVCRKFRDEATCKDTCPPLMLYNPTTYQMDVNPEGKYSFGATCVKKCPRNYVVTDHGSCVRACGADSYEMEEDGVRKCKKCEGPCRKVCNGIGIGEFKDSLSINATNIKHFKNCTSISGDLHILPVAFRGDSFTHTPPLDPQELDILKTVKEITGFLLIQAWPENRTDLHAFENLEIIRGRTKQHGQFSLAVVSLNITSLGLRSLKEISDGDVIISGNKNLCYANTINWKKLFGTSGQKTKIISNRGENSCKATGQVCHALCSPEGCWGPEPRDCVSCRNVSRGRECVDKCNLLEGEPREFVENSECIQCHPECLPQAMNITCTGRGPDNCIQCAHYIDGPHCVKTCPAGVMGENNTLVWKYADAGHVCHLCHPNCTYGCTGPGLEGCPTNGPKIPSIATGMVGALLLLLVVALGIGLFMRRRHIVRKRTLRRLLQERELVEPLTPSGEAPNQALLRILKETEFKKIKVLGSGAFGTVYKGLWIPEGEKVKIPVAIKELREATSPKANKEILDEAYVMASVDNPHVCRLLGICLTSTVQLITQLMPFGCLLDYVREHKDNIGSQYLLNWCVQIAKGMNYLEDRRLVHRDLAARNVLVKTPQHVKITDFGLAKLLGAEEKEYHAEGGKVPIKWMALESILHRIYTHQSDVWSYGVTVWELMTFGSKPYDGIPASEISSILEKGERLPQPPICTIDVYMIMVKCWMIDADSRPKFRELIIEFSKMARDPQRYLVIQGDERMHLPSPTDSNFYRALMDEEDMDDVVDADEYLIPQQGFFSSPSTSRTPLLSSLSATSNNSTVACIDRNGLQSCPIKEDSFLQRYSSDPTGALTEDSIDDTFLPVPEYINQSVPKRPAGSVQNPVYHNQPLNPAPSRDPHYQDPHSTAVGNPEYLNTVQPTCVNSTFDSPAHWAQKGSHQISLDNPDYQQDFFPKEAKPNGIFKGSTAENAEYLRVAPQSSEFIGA
T1 sequence (G3V6K6 25-1209): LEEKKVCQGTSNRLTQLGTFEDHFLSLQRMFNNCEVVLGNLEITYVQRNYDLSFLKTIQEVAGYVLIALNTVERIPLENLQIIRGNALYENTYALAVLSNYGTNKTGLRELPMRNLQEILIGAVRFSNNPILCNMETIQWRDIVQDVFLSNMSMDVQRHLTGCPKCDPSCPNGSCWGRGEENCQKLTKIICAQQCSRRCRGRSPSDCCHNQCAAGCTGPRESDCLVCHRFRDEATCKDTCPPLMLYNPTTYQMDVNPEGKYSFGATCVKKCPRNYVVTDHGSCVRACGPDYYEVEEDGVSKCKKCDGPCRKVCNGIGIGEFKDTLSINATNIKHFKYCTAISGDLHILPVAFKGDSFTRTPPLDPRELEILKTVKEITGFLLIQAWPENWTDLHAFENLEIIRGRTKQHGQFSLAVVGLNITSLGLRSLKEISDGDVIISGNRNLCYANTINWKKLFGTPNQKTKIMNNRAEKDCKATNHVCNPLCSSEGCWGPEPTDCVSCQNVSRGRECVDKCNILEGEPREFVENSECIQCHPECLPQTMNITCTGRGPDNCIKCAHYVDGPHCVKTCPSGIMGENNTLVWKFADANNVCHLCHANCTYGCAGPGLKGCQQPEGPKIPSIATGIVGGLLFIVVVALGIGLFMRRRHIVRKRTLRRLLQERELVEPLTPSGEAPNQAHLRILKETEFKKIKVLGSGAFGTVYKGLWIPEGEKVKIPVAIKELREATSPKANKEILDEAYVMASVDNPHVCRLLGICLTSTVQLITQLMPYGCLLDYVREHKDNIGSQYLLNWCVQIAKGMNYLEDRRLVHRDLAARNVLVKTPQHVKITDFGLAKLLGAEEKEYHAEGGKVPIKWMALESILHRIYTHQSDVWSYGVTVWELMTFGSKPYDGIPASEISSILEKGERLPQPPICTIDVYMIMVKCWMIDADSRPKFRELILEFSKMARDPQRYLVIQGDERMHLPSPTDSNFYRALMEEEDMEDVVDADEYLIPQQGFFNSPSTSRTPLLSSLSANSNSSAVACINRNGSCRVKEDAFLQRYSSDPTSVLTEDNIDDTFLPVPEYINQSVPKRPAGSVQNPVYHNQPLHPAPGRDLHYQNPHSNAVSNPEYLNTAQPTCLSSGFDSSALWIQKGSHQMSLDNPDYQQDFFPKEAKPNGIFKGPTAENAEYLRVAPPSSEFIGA

As for `O=C(NC(=S)Nc1ccc(S(=O)(=O)NCCc2ccccc2)cc1)C1CC1` [AD4-1886], the “inhibition of epidermal growth factor binding to its receptor” value on EGF binding site is “inhibitor of epidermal growth factor binding to its receptor”.

In the case of `Cc1ccc2c(C)nc(Nc3nc(-c4ccccc4)cc(=O)[nH]3)nc2c1` [AD4-10381], the “inhibition of epidermal growth factor binding to its receptor” value on EGF binding site is given as “inhibitor of epidermal growth factor binding to its receptor”.

For `Cc1cccc(NC(c2ccc(C(F)(F)F)cc2)c2ccc3cccnc3c2O)n1` (stereo not drawn) [AD4-10628], the “CI @ ED90” value in test [1] (combination with Iressa) worked out at 0.91; in test [1] (combination with Tykerb), 0.55. Moreover, the results for the “DRI @ ED97” value in test [1] (setting [5]) and in test [1] (setting [6]) were 105 and 126, respectively.

For the compound `Cc1ccc2c(C)nc(Nc3nc(-c4ccccc4C)cc(=O)[nH]3)nc2c1` [AD4-11511], the “shift in Tykerb's dose-response curve” value at EGFR [2] is reported as “leftward shift (i.e., greater potency)”. Also, the “CI @ ED90” value in test [1] (combination with Iressa) is recorded as 0.93; in test [1] (combination with Tykerb), 0.87. In addition, the entries for the “DRI @ ED97” value in test [1] (setting [5]) and in test [1] (setting [6]) were 96 and 84, respectively. In addition, the “DRI (effect of the test compound on Tykerb / Iressa)” value in test [1] (result in words) is listed as “very high DRI values; also recorded: fairly high DRI”.

On to `C#Cc1cccc(Nc2ncnc3cc(OCCOC)c(OCCOC)cc23)c1` [Tarceva, reference compound], for which the “synergism with Tykerb” value in test [1] is recorded as “did not produce synergistic effects”.

For the compound `CS(=O)(=O)CCNCc1ccc(-c2ccc3ncnc(Nc4ccc(OCc5cccc(F)c5)c(Cl)c4)c3c2)o1` [Tykerb, reference compound], the “effect of Tykerb on the test compound (DRI as a function of Fa)” value in test [1] is “little effect on AD4-10628”. Further, in test [1] (read-out: IC50 Tykerb), the IC50 was 0.178 µM and 0.189 µM and 0.307 µM.

Turning to `COc1ccc2c(C)nc(Nc3nc(C)cc(-c4ccccc4)n3)nc2c1` [compound 12676], at EGFR [3], the “ICW Avg” value is recorded as 25.81, the “ICW 1” value stood at 28.01 and the “ICW 2” value was 23.61. The IC50 in test [4] (setting [7]) turned out to be 12.9 µM. The “MTT Assay IC50(A431/MDBK): ratio in parentheses” value (“MTT Assay IC50(A431/MDBK): ratio” below) in test [4] is 1.45. For the same compound, the IC50 in the test with MDBK line (Bos taurus, MDBK) came to 18.8 µM.

`CCOC(=O)c1c(N)nc(Nc2nc(C)c3cc(OC)ccc3n2)nc1-c1ccccc1` [compound 12679]: on EGFR [3], the “ICW Avg” value is listed as 70.50, the “ICW 1” value is recorded as 73.98 and the “ICW 2” value stood at 67.01. In test [4] (setting [7]), the IC50 stood at 15.1 µM. The “MTT Assay IC50(A431/MDBK): ratio” value in test [4] amounted to 2.78. Further, the IC50 with MDBK line (Bos taurus, MDBK) is 42 µM.

For `CCOC(=O)c1c(N)nc(Nc2nc(C)c3cc(C)ccc3n2)nc1-c1ccccc1` [compound 12681], on EGFR [3], the “ICW Avg” value was determined as 89.48, the “ICW 1” value came to 89.93 and the “ICW 2” value is on record as 89.02. Also, the IC50 in test [4] (A431 cells) was 15.6 µM. In addition, the “MTT Assay IC50(A431/MDBK): ratio” value in test [4] worked out at 1.63. Also, in the test on MDBK line, the IC50 was found to be 25.4 µM.

Consider `CCCc1c(-c2ccccc2)nc(Nc2nc(C)c3ccccc3n2)[nH]c1=O` [compound 12732], for which, at EGFR [3], the “ICW Avg” value is listed as 82.77, the “ICW 1” value is reported as 79.12 and the “ICW 2” value was 86.41. The IC50 in test [4] (A431 cells) stood at 11.1 µM. The “MTT Assay IC50(A431/MDBK): ratio” value in test [4] worked out at 1.35. In the test with MDBK line, the IC50 stood at 15 µM.

Turning to `CCCc1c(C)nc(Nc2nc(C)c3cc(C)cc(C)c3n2)[nH]c1=O` [compound 12736], at EGFR [3], the “ICW Avg” value was determined as 43.43, the “ICW 1” value worked out at 32.35 and the “ICW 2” value is given as 54.51. Further, in test [4] (A431 cells), the IC50 was found to be 7.14 µM. Besides, the “MTT Assay IC50(A431/MDBK): ratio” value in test [4] is listed as 1.38. For the same compound, the IC50 with MDBK line is 9.82 µM.

Turning to `C=CCc1c(C)nc(Nc2nc(C)c3cccc(OCC)c3n2)[nH]c1=O` [compound 12737], at EGFR [3], the “ICW Avg” value worked out at 42.27, the “ICW 1” value stood at 38.90 and the “ICW 2” value is given as 45.65. The IC50 in test [4] (setting [7]) was found to be 14.7 µM. Also, the “MTT Assay IC50(A431/MDBK): ratio” value in test [4] worked out at 0.43. Moreover, the IC50 in the test on MDBK line (Bos taurus, MDBK) is 6.33 µM.

As for `C=CCc1c(C)nc(Nc2nc(C)c3cc(CC)ccc3n2)[nH]c1=O` [compound 12739], at EGFR [3], the “ICW Avg” value is 34.03, the “ICW 1” value worked out at 28.51 and the “ICW 2” value came out at 39.54. In addition, the IC50 in test [4] (setting [7]) was 15.9 µM. Also, the “MTT Assay IC50(A431/MDBK): ratio” value in test [4] was determined as 0.58. Moreover, the IC50 in the test on MDBK line (Bos taurus, MDBK) stood at 9.17 µM.

As for `CCCc1c(C)nc(Nc2nc(C)c3cccc(C)c3n2)[nH]c1=O` [compound 12742], at EGFR [3], the “ICW Avg” value came to 49.20, the “ICW 1” value was 33.49 and the “ICW 2” value came to 64.92. For the same compound, the IC50 in test [4] (A431 cells) was determined as 19.6 µM. The “MTT Assay IC50(A431/MDBK): ratio” value in test [4] turned out to be 0.97. The IC50 in the test on MDBK line was determined as 18.9 µM.

As to `C=CCc1c(C)nc(Nc2nc(C)c3cccc(OC)c3n2)[nH]c1=O` [compound 12746], at EGFR [3], the “ICW Avg” value was 32.65, the “ICW 1” value came to 18.02 and the “ICW 2” value turned out to be 47.28. Moreover, the IC50 in test [4] (setting [7]) was 17.9 µM. Besides, the “MTT Assay IC50(A431/MDBK): ratio” value in test [4] came out at 0.67. For the same compound, the IC50 in the test with MDBK line (Bos taurus, MDBK) was 11.9 µM.

Turning to `Cc1nc(Nc2nc(C(C)C)cc(=O)[nH]2)nc2c(C)cccc12` [compound 12777], on EGFR [3], the “ICW Avg” value is 30.77, the “ICW 1” value was 24.37 and the “ICW 2” value is recorded as 37.17. Also, in test [4] (setting [7]), the IC50 worked out at 12.8 µM. The “MTT Assay IC50(A431/MDBK): ratio” value in test [4] stood at 0.70. For the same compound, the IC50 in the test on MDBK line (Bos taurus, MDBK) is 8.96 µM.

For `COc1cccc2c(C)nc(Nc3nc(-c4ccc(F)cc4)cc(=O)[nH]3)nc12` [compound 12778], at EGFR [3], the “ICW Avg” value is reported as 37.56, the “ICW 1” value amounted to 31.05 and the “ICW 2” value stood at 44.08. Also, the IC50 in test [4] (setting [7]) was 4.66 µM. For the same compound, the “MTT Assay IC50(A431/MDBK): ratio” value in test [4] came out at 1.15. For the same compound, the IC50 in the test on MDBK line (Bos taurus, MDBK) came to 5.34 µM.
